Measured values reported in patent US7259142B2, “Redox-stable, non-phosphorylated cyclic peptide inhibitors of SH2 domain binding to target protein, conjugates thereof, compositions and methods of synthesis and use” (The United States of America, represented by the Secretary, …, priority 1999, dated 2007).
Read-outs that look alike come from different tables or passages of the source. Where a SMILES comes first, the peptide text is derived from it. Bridges are numbered along the chain shown (N, C = ends). Where no end group is shown, it is not given here. [ ]: non-standard residue; d: D form. pY = N[C@@H](Cc1ccc(OP(=O)(O)O)cc1)C(=O)O; Gla = N[C@@H](CC(C(=O)O)C(=O)O)C(=O)O

Columns and labels:
[1] = molecular target: T1, p185^erbB-2/Grb2 association in MDA-MB-453 cells (Homo sapiens, UniProt P62993); experiment: Inhibition of intracellular p185erbB-2/Grb2 association in whole MDA-MB-453 cells; assay type: cell-based; conditions: for concentration of effective inhibition of p185erbB-2/Grb2 association in cells: whole MDA-MB-453 cells treated 3 hrs in serum-free IMEM, inhibitor 0.1-50 μM
T1 construct: endogenous in cells; host or cells: MDA-MB-453 breast cancer cells
Experimental: The compound of Example 1, and the conjugate of Example 12, were tested in MDA-MB-453 cells (breast cancer cells that overexpress p185^erbB-2 receptor) at inhibitor concentrations of 0.1, 0.4, 2, 10 and 50 μM. In the control experiment, no inhibitor was used. The cells were treated for 3 hrs in serum-free IMEM medium. The cells were washed twice with ice-cold PBS to remove the residual inhibitory compound that was not internalized.
(§1) Cell lysates were prepared using 1% Triton X-100 in PBS containing 0.2 mM NaVO4. Grb2 and associated Grb2-binding proteins were immunoprecipitated from each lysate (500 μg) with anti-Grb2 antibodies and collected using protein A Sepharose using methods previously described. Immunoprecipitated proteins were separated by SDS-PAGE on 8-16% gradient gels (Novex). pTyr-containing proteins were detected by Western blotting using anti-phosphotyrosine antibodies (Upstate Biotechnology Inc.). Previous experiments have shown that a major tyrosine phosphorylated protein in MDA-MB-453 cells is p185^erbB-2, which is overexpressed as a consequence of gene amplification.
In these whole cell assays the agents were applied to the cell culture media of MDA-MB-453 cells. These conditions required that compounds transit through the cell membrane.

[2] = molecular target: recombinant GST-Grb2 SH2 protein (Homo sapiens, UniProt P62993); experiment: Biacore Surface Plasmon Resonance competitive binding assay against immobilized SHC(pTyr-317)-9-mer phosphopeptide; conditions: Biacore SPR, GST-Grb2-SH2 150-250 nM, PBS pH 7.4; mean of at least two independent experiments; read-out: IC50 (concentration at which half-maximal competition was observed)
Experimental: The competitive binding affinity of the present inventive compounds was assessed using Biacore Surface Plasmon Resonance (SPR) methods utilizing a Biacore 2000 instrument. The concentrations at which half-maximal competition was observed (IC50) were determined by mixing the inhibitor with recombinant GST-Grb2 SH2 protein and measuring the amount of competitive binding at equilibrium to an immobilized (via biotin conjugation to streptavidin coated surface of the Biacore sensor chip SA; 2 nM concentration) SHC(pTyr-317)-9-mer phosphopeptide in a manner similar to that reported previously (Oligino et al. (1997), supra). Specifically, competitive binding assays were carried out at 5 μl/min flow rate, with GST-Grb2-SH2 (150-250 nM) and a cyclic peptide inhibitor (10 nM-2 mM) in phosphate-buffered saline (PBS), pH 7.4, containing 0.01% P-20 surfactant (Biacore, Inc., Piscataway, N.J.) for a total of 10 min. The change in response units (RU) at equilibrium was measured from the absorption profiles and the percent of control (no added peptide) was calculated. […] The results represent the mean value of at least two independent experiments.

[3] = molecular target: T2, p185^erbB-2 receptor association with the Grb2 adapter protein (MDA-MB-453 cell lysates) (Homo sapiens, UniProt P62993); experiment: Inhibition of p185erbB-2 interaction with Grb2 in cell homogenates (anti-Grb2 immunoprecipitation, anti-pTyr Western blot); assay type: biochemical
T2 construct: endogenous in cells; host or cells: MDA-MB-453 breast cancer cells
Experimental: as §1, with “Cell lysates were prepared from the serum-treated erbB-2-overexpressing breast cancer cell line MDA-MB-453 using 1% Triton X-100 in PBS containing 0.2 mM NaVO4. Lysates were incubated with the present inventive cyclic peptide inhibitors specified in Example 1 and Example 12, at concentrations of 0.1, 0.4, 2, 10 and 50 μM. No inhibitor was used as a control. Cell” for “Cell”, “amplification. […] A dose-dependent inhibition of the p185^erbB-2 receptor association with the Grb2 adapter protein was observed.” for “amplification.”

SH2 domain of Grb2 = SH2 domain of Grb2 (Homo sapiens, UniProt P62993); conditions: background, previously reported values; read-out: IC50 (receptor affinity); cited from earlier work
SH2 domain of Grb2, sequence (P62993 60-152 limits assumed): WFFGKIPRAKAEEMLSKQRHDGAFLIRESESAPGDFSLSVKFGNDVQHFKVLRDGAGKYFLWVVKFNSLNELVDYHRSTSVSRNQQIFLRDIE

recombinant GST-Grb2 SH2 protein, sequence (P62993 60-152 limits assumed): as above

| IC50 [2] [nM] | IC50 ([3]; MDA-MB-453 cell lysates, inhibitor 0.1-50 μM, read-out: half-maximal inhibition of p185erbB-2/Grb2 protein association) [nM] | Compound | concentration of effective inhibition of p185erbB-2/Grb2 association in cells [1] [µM] | reduction in the associated p185erbB-2 bound to Grb2 in cells ([1]; whole MDA-MB-453 cells pre-treated with increasing amounts) | IC50 [3] [nM] | IC50 (SH2 domain of Grb2) [nM] |
| --- | --- | --- | --- | --- | --- | --- |
| 640 ± 100 | 2000 | CSCC[C@@H]1NC(=O)CNC(=O)[C@H](C(C)C)NC(=O)[C@H](CC(N)=O)NC(=O)[C@H](CCC(=O)O)NC(=O)[C@H](Cc2ccc(O)cc2)NC(=O)[C@H](CC(C)C)NC(=O)[C@H](CC(C(=O)O)C(=O)O)NC(=O)CSC[C@@H](C(N)=O)NC(=O)[C@H](Cc2ccc(O)cc2)NC1=O [Example 1, cyclo(CH2CO-Gla^1-Leu^2-Tyr^3-Glu^4-Asn^5-Val^6-Gly^7-Met^8-Tyr^9-Cys)-amide] ({CH2CO}-[Gla]LYENVGMYC-NH2; thioether N-10) | 50 | – | – | – |
| – | – | CSCC[C@@H]1NC(=O)CNC(=O)[C@H](C(C)C)NC(=O)[C@H](CC(N)=O)NC(=O)[C@H](CCC(=O)O)NC(=O)[C@H](Cc2ccc(O)cc2)NC(=O)[C@H](CC(C)C)NC(=O)[C@H](CC(C(=O)O)C(=O)O)NC(=O)CSC[C@@H](C(=O)N[C@@H](C)C(=O)N[C@@H](C)C(=O)N[C@H](C(=O)N[C@@H](C)C(=O)N[C@@H](CC(C)C)C(=O)N[C@@H](CC(C)C)C(=O)N2CCC[C@H]2C(=O)N[C@@H](C)C(=O)N[C@H](C(=O)N[C@@H](CC(C)C)C(=O)N[C@@H](CC(C)C)C(=O)N[C@@H](C)C(=O)N[C@@H](CC(C)C)C(=O)N[C@@H](CC(C)C)C(=O)N[C@@H](C)C(=O)N2CCC[C@H]2C(N)=O)C(C)C)C(C)C)NC(=O)[C@H](Cc2ccc(O)cc2)NC1=O [Example 12, cyclo(CH2CO-Gla^1-Leu^2-Tyr^3-Glu^4-Asn^5-Val^6-Gly^7-Met^8-Tyr^9-Cys)-NH-Ala-Ala-Val-Ala-Leu-Leu-Pro-Ala-Val-Leu-Leu-Ala-Leu-Leu-Ala-Pro] ({CH2CO}-[Gla]LYENVGMYCAAVALLPAVLLALLAP-NH2; thioether N-10) | 2 | clear dose-dependent reduction | 2000 | – |
| – | – | SHC(pY^317)-9-mer: segment of the naturally phosphorylated ligand (DDPS[pY]VNVQ) | – | – | – | 1000 |
